Experiments:
[1] = system: Lin- hematopoietic precursors from E14.5 fetal livers; test: Erythroid maturation (CD71/Ter119, R1-R5) of E14.5 fetal liver hematopoietic precursors, flow cytometry; assay type: cell-based, mouse; conditions: Lin- HSPCs from fetal liver, DMSO as control, 3 days
Method: Primary erythroid precursor cell isolation. Primary erythroid precursors were isolated from E14.5 fetal livers using the EasySep™ negative selection Mouse Hematopoietic Progenitor Cell Enrichment Kit (StemCell Technologies). Briefly, fetal livers were dissociated by pipetting and resuspended at 5×10^7 cell/ml in PBS containing 2% FBS, 2.5 mM EDTA, and 10 mM glucose. EasySep™ Mouse Hematopoietic Progenitor Cell Enrichment Cocktail was added at 50 μg/ml supplemented with 2.5 μg/ml biotin-conjugated CD71 antibody (eBioscience). After 15 min incubation on ice, the cells were washed by centrifugation for […] at 1200 rpm at 4° C. and resuspended at 5×10^7 cell/ml in PBS containing 2% FBS, 2.5 mM EDTA, and 10 mM glucose, and EasySep™ Biotin Selection Cocktail was added at 100 μg/ml. After 15 min incubation at 4° C., EasySep™ Mouse Progenitor Magnetic Microparticles were added at 50 μg/ml. […]
(§1) Flow cytometry. […] APC-conjugated antibody CD31 (MEC13.3, Biolegend), PE-conjugated antibody c-Kit (2B8, eBioscience), PerCP-Cy5.5-conjugated antibody Scal (D7, eBioscience), APC-conjugated antibody Ter119 (TER119, eBioscience) and PE-conjugated CD71 (R17217, eBioscience) were used for flow cytometry and Fluorescence Activated Cell Sorting (FACS). Samples were analyzed on a FACSAria™ II cell sorter (BD Biosciences). […]

Gata2 expression = test: RT-PCR and Western blot of Gata2/GATA-2 and GATA-2 target genes in fetal liver cells and FACS-sorted R2 cells; assay type: cell-based, mouse; conditions: total fetal liver cells, compound treatment, 72 h
Method: Cell culture. G1E-ER-GATA-1 cells were cultured with or without 1 μM estradiol as previously described. Fetal liver erythroid precursor cells were cultured and maintained at a density of 2.5×10^5−1×10^6 cells/ml in StemPro®-34 (Gibco) supplemented with 10% nutrient supplement (Gibco), 2 mM L-glutamine (Cellgro), 1% Penicillin/streptomycin (Cellgro), 100 μM monothioglycerol (Sigma-Aldrich), 1 μM dexamethasone (Sigma-Aldrich), 0.5 U/ml of erythropoietin, and 1% conditioned medium from a kit ligand-producing CHO cell line for expansion. Cells were cultured in a humidified incubator at 37° C. (5% carbon dioxide).
Quantitative real-time RT-PCR. […] Real-time PCR was performed with SYBR green master mix (Applied Biosystems) and Product accumulation was monitored by SYBR green fluorescence using either a StepOnePlus™ or Viia™7 instrument (Applied Biosystems). Relative expression was determined from a standard curve of serial dilutions of cDNA samples, and values were normalized to 18S RNA expression. […]
as §1, with “(FACS).” for “(FACS). Samples were analyzed on a FACSAria™ II cell sorter (BD Biosciences).”

Row | Structure (SMILES) | activity on erythropoiesis (flow analysis, R1-R5), compared with psychosine [1] | Gata2 mRNA level vs DMSO-treated control (Gata2 expression) | Gata2 primary transcript level vs DMSO-treated control (Gata2 expression)
1 | CCCCCCCCCCCCC/C=C/[C@@H](O)C(N)CO[C@H]1O[C@H](CO)[C@@H](O[C@@H]2O[C@H](CO)[C@H](O)[C@H](O)[C@H]2O)[C@H](O)[C@@H]1O (stereo partly drawn) [lactosylsphingosine] | not | – | –
2 | CCCCCCCCCCCCC/C=C/C(O)C(N)CO[C@@H]1O[C@H](CO)[C@H](O)[C@H](O)[C@H]1O (stereo partly drawn) [psychosine, galactosylsphingosine] | – | 2-3 fold | 2-3 fold

Source: patent publication US11053475B2, “Methods of expanding hematopoietic stem cells, compositions, and methods of use thereof” (WISCONSIN ALUMNI RESEARCH FOUNDATION, priority 2015, dated 2021)
